How the values were obtained:
GIST-T1 cells = assay: Cell viability assay (CellTiter-Glo, ATP-based); set-up: species or system human; conditions: biologically relevant concentrations
Method: 0.25×10^4-1×10^4 GIST-T1 cells were seeded into each well in a 96-well plate. PVAC, EC, and PVA were added into each well or vehicle (deionized water) with subsequent incubation for 24 or 48 hours. CellTiter-Glo assay (Promega, MI, USA) is an ATP-based luminometric method that was performed according to protocol. In brief, cells were removed from incubator to allow adjust to room temperature after which 100 μL of room temperature CellTiter-Glo was added to each well. The plates were put on a shaker for 5-10 min. Cells rested for 5-10 min before measurement on an EnVision 2103 Multilabel Reader (Perkin Elmer, MA, USA).

MDA-MB-231 tumor cells = conditions: mouse, in vivo
Method: Following injection of MDA-MB-231 cells into athymic nude mice the animals were monitored twice weekly recording weight, general health and tumor size. When the average tumor size was approximately 100 μL the animals were stratified into three groups of 12 mice per group based on tumor size. All three groups were subjected to 28 days of twice-weekly intra/peri tumoral injections at a volume of 100 μL per injection. One group served as a control group and received NaCl (vehicle) injections. The remaining two groups received different doses of PVAC, as described above. The animals were euthanized on Day 29 and the tumors were excised, weighed, and divided into two parts handled as described above.

Molecule | Cellular viability (GIST-T1 cells) | Animals euthanized due to infections (MDA-MB-231 tumor cells)
CCOC(=O)NN [EC, ethyl carbazate] | did not reduce cellular viability | 
Poly[1-hydroxyethylene)-ran-(1-hydrazinecarboxylatoethylene)] [PVAC] |  | four

— US12383578B2, “Carbazate-activated polyvinyl alcohol (PVAC) as a polymer-based antitumoral agent” (CREMED AB (PUBL), priority 2019, dated 2025)
